Measurements from patent US5066658A, “Substituted hydroxyureas” (Ortho Pharmaceutical Corporation, priority 1990, dated 1991).
pIC50: −log10 of the molar value.

Assays:
[1] = tested on: Arachidonate-Induced Ear Edema; test: Arachidonic Acid-Induced Ear Edema Assay; type: in vivo; conditions: topical, mouse ear; for inhibition in vivo at 0.4 mg: 400 μg topically
Experimental: The topical anti-inflammatory activity of a compound was determined by its ability to inhibit an experimentally-induced inflammation in the mouse ear. Basically, four milligrams of arachidonic acid in acetone were applied to the dorsal surface of one ear with a microliter pipette. The mice were sacrificed at various times after application of arachidonic acid (one-half to six hours). A section of each ear was removed with a 7 mm round punch and weighed on an electronic or analytical balance. The difference in weight between treated and untreated ears was determined. Compounds to be evaluated for anti-inflammatory activity can be incorporated directly into the irritant mixture or at various times prior to or after application of arachidonic acid.
The degree of anti-inflammatory activity is shown in Table I, and is expressed in terms of the percent inhibition of ear weight increase.

[2] = tested on: Arachidonate-Induced Bronchospasm (lipoxygenase); test: Pulmonary Mechanics Assay: arachidonate-induced bronchospasm with indomethacin (SRS-A response, indicative of lipoxygenase inhibition); type: in vivo, male Hartley guinea pigs; conditions: Cavia porcellus, guinea pig
Summary of the method: (§1)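 Urethane-anaesthetised (2 g/kg i.p.), succinylcholine-paralysed, ventilated male Hartley guinea pigs; compound given by various routes between i.v. arachidonic acid challenges (0.5-1.0 mg/kg; then 5-10 mg/kg after indomethacin 10 mg/kg i.v.). Cdyn and RL changes expressed as percent inhibition of control.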

5-lipoxygenase = biological target: T1, 5-lipoxygenase (Rattus norvegicus, UniProt P12527); test: Inhibition of 5-lipoxygenase in cell-free homogenate of rat basophilic leukemia (RBL-1) cells; type: biochemical; conditions: RBL-1 cell-free homogenate; for inhibition at 3 µM: read-out: Inhibition of 5-Lipoxygenase, % Inh. @ 3 μM
T1 construct: The cell-free homogenate was prepared by sonication of the cells followed by centrifugation at 40,000 xg; endogenous in cells; host or cells: RBL-1 (rat basophilic leukemia) cells, 40,000 xg supernatant of the sonicate
T1 sequence (P12527 1-673): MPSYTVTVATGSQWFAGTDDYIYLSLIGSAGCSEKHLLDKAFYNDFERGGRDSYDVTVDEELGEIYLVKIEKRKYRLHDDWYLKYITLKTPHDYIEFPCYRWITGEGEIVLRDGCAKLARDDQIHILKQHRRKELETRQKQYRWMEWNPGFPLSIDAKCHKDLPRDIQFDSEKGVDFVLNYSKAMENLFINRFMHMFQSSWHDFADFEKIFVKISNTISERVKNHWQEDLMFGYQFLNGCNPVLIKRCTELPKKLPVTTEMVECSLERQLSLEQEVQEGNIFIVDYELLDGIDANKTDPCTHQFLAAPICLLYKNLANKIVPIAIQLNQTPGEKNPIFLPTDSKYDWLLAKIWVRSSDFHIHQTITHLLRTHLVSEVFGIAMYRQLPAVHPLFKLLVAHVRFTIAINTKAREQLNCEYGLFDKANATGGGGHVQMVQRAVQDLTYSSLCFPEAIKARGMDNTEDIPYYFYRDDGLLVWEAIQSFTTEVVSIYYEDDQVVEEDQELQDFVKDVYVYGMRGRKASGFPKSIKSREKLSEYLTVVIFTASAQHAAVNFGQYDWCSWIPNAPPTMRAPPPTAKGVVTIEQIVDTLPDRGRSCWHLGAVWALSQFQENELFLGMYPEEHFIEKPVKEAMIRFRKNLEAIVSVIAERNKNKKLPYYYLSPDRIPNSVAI
Summary of the method: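 40,000 xg supernatant of sonicated RBL-1 cell homogenate incubated with ^14C-arachidonic acid and CaCl2, with drug or vehicle. Products extracted after acidification, separated by TLC and quantified by scintillation counting; IC50 or percent inhibition at 3 μM reported.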

[3] = tested on: Arachidonate-Induced Bronchospasm (cyclooxygenase); test: Pulmonary Mechanics Assay: arachidonate-induced bronchospasm without indomethacin (indicative of cyclooxygenase inhibition); type: in vivo, male Hartley guinea pigs; conditions: Cavia porcellus, guinea pig
Summary of the method: as §1

[4] = read-out: Inhibition of Arachidonate-Induced Ear Edema, % Inh. (μg topically)
[5] = IV dosing, read-out: Inhibition of Arachidonate-Induced Bronchospasm (IV Dosing), % Inh. with Indomethacin
[6] = IV dosing, read-out: Inhibition of Arachidonate-Induced Bronchospasm (IV Dosing), % Inh. without Indomethacin

inhibition at 3 µM (5-lipoxygenase)	pIC50 (5-lipoxygenase)	SMILES	Inhibition of Arachidonate-Induced Ear Edema, ED50 [1]	inhibition in vivo at 0.4 mg [1, 4]	inhibition in vivo at 15 mg/kg [2, 5]	inhibition in vivo at 15 mg/kg [3, 6]	other results
–	6.13	CCCCCCCCCCN1CCN(O)C1=O [Example 25, 1-Decyl-3-hydroxyimidazolidin-2-one]	90 µg	81%	–	–	inhibition in vivo at 20 mg/kg ([2]; IV dosing, 20 mg/kg, read-out: Inhibition of Arachidonate-Induced Bronchospasm (IV Dosing), % Inh. with Indomethacin): 62%; inhibition in vivo at 20 mg/kg ([3]; IV dosing, 20 mg/kg, read-out: Inhibition of Arachidonate-Induced Bronchospasm (IV Dosing), % Inh. without Indomethacin): 85%
24%	–	COc1cc2c(cc1OC)CN(C(=O)N(C)O)CC2 [Example 51, 6,7-Dimethoxy-N-hydroxy-N-methyl-1,2,3,4-tetrahydroisoquinoline-2-carboxamide]	–	–	60%	< 20%	inhibition in vivo at 0.1 mg ([1]; 100 μg topically, read-out: Inhibition of Arachidonate-Induced Ear Edema, % Inh. (μg topically)): 28%

Further lines, the compound ahead of its results:

SMILES	inhibition at 3 µM (5-lipoxygenase)	pIC50 (5-lipoxygenase)	Inhibition of Arachidonate-Induced Ear Edema, ED50 [1]	inhibition in vivo at 0.4 mg [1, 4]	inhibition in vivo at 15 mg/kg [2, 5]	inhibition in vivo at 15 mg/kg [3, 6]	other results
CCCCCCCCCCNC(=O)N(O)CCCC(=O)OCC [Example 19, N-Decyl-N'-[3-(ethoxycarbonyl)propyl]-N'-hydroxyurea]	94%	–	183 µg	60%	–	–	inhibition in vivo at 50 mg/kg ([2]; ID dosing, 50 mg/kg, read-out: Inhibition of Arachidonate-Induced Bronchospasm (ID Dosing), % Inh. with Indomethacin): 0%; inhibition in vivo at 50 mg/kg ([3]; ID dosing, 50 mg/kg, read-out: Inhibition of Arachidonate-Induced Bronchospasm (ID Dosing), % Inh. without Indomethacin): -89%
CCCCCN1CCN(O)C1=O [Example 23, 1-pentyl-3-hydroxyimidazolidin-2-one]	–	< 5.00	–	–	52%	97%	inhibition in vivo at 0.2 mg ([1]; 200 μg topically, read-out: Inhibition of Arachidonate-Induced Ear Edema, % Inh. (μg topically)): 29%
COc1ccc(CCNC(=O)N(C)O)cc1OC [Example 40, N-[2-(3,4-Dimethoxyphenyl)ethyl]N'-hydroxy-N'-methylurea]	–	5.37	–	66%	89%	86%	inhibition in vivo at 25 mg/kg ([2]; ID dosing, 25 mg/kg, read-out: Inhibition of Arachidonate-Induced Bronchospasm (ID Dosing), % Inh. with Indomethacin): 89%; inhibition in vivo at 25 mg/kg ([3]; ID dosing, 25 mg/kg, read-out: Inhibition of Arachidonate-Induced Bronchospasm (ID Dosing), % Inh. without Indomethacin): 69%
